Results taken from US7019001B2, “Substituted benzothiazole amide derivatives” (Hoffman-La Roche Inc., priority 2001, dated 2006).
Like-named read-outs stand apart in the source and are kept apart here.

What was measured:
[1] = biological target: T1, human adenosine A2A receptor (Homo sapiens, UniProt P29274); experiment: [3H]-SCH-58261 binding assay, human adenosine A2A receptor (CHO cell membranes, SPA)
T1 construct: expressed in transfected cells; host or cells: CHO cells, semliki forest virus expression system; washed membrane pellet used
Procedure: Human Adenosine A2A Receptor
The human adenosine A2A receptor was recombinantly expressed in chinese hamster ovary (CHO) cells using the semliki forest virus expression system. Cells were harvested, washed twice by centrifugation, homogenised and again washed by centrifugation. The final washed membrane pellet was suspended in a Tris (50 mM) buffer containing 120 mM NaCl, 5 mM KCl, 2 mM CaCl2 and 10 mM MgCl2 (pH 7.4) (buffer A). The [^3H]-SCH-58261 (Dionisotti et al., 1997, Br J Pharmacol 121, 353; 1 nM) binding assay was carried out in 96-well plates in the presence of 2.5 μg of membrane protein, 0.5 mg of Ysi-poly-1-lysine SPA beads and 0.1 U adenosine deaminase in a final volume of 200 μl of buffer A. Non-specific binding was defined using xanthine amine congener (XAC; 2 μM). Compounds were tested at 10 concentrations from 10 μM–0.3 nM. All assays were conducted in duplicate and repeated at least two times. Assay plates were incubated for 1 hour at room temperature before centrifugation and then bound ligand determined using a Packard Topcount scintillation counter. IC50 values, the concentration where 50% of the […] binding is displaced, were calculated using a non-linear curve fitting program and Ki values calculated using the Cheng-Prussoff equation.

[2] = displacement of [3H]-SCH-58261 (1 nM), recombinant receptor in CHO membranes, Ki by Cheng-Prussoff equation, read-out: hA2 (pKi) (converted)

T1 sequence (P29274 whole entry): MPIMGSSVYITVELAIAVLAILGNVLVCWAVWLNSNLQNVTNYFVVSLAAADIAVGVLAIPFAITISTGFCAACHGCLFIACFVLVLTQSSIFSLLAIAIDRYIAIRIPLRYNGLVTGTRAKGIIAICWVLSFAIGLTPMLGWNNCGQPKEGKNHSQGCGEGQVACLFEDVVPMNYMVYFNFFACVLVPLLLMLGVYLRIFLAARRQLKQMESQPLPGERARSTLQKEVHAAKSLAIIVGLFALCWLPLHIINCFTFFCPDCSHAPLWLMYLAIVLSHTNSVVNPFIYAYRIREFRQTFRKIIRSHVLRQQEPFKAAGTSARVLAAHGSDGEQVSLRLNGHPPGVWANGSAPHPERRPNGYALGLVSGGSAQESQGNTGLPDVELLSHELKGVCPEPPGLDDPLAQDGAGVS

Structure (SMILES)	Ki [1, 2] [nM]	melting point [°C]	other results
COc1ccc(N2CCOCC2)c2sc(NC(=O)N3C[C@@H]4C[C@H]3CO4)nc12 [Example 1, (1S,4S)-2-Oxa-5-aza-bicyclo[2.2.1]heptane-5-carboxylic acid (4-methoxy-7-morpholin-4-yl-benzothiazol-2-yl)-amide]	3.16	–	–
COc1ccc(N2CCOCC2)c2sc(NC(=O)NC3CCOCC3)nc12 [Example 2, 1-(4-Methoxy-7-morpholin-4-yl-benzothiazol-2-yl)-3-(tetrahydro-pyran-4-yl)-urea]	12.6	–	–
COc1ccc(N2CCOCC2)c2sc(NC(=O)N3[C@@H]4CC[C@H]3C[C@@H](O)C4)nc12 [Example 3, 3-endo-Hydroxy-8-aza-bicyclo[3.2.1]octane-8-carboxylic acid (4-methoxy-7-morpholin-4-yl-benzothiazol-2-yl)-amide]	–	–	Ki [1]: 7.94 nM
COc1ccc(N2CCOCC2)c2sc(NC(=O)N3CCC4(CCN(C)C4=O)CC3)nc12 [Example 4, 2-Methyl-1-oxo-2,8-diaza-spiro[4.5]decane-8-carboxylic acid (4-methoxy-7-morpholin-4-yl-benzothiazol-2-yl)-amide]	6.31	–	–
COc1ccc(N2CCOCC2)c2sc(NC(=O)N3CCC4(CCNC4=O)CC3)nc12 [Example 5, 1-Oxo-2,8-diaza-spiro[4.5]decane-8-carboxylic acid (4-methoxy-7-morpholin-4-yl-benzothiazol-2-yl)-amide]	6.31	–	–
COc1ccc(N2CCOCC2)c2sc(NC(=O)N3CCN(c4ccccc4)CC3)nc12 [Example 7, 4-Phenyl-piperazine-1-carboxylic acid (4-methoxy-7-morpholin-4-yl-benzothiazol-2-yl)-amide]	7.94	–	–
COc1ccc(N2CCOCC2)c2sc(NC(=O)N3CCC(CO)(Cc4ccccc4)CC3)nc12 [Example 8, 4-Benzyl-4-hydroxymethyl-piperidine-1-carboxylic acid (4-methoxy-7-morpholin-4-yl-benzothiazol-2-yl)-amide]	3.98	–	–
COc1ccc(N2CCOCC2)c2sc(NC(=O)N(C)C3CCCCC3)nc12 [Example 9, 1-Cyclohexyl-3-(4-methoxy-7-morpholin-4-yl-benzothiazol-2-yl)-1-methyl-urea]	12.6	–	–
COc1ccc(N2CCOCC2)c2sc(NC(=O)N3CCC4(CCCCC4)CC3)nc12 [Example 10, 3-Aza-spiro[5.5]undecane-3-carboxylic acid (4-methoxy-7-morpholin-4-yl-benzothiazol-2-yl)-amide]	10	–	–
COc1ccc(N2CCOCC2)c2sc(NC(=O)N3CCC4(CCCC4)CC3)nc12 [Example 11, 8-Aza-spiro[4.5]decane-8-carboxylic acid (4-methoxy-7-morpholin-4-yl-benzothiazol-2-yl)-amide]	6.31	–	–
COc1ccc(N2CCOCC2)c2sc(NC(=O)N3CC4CCC3CC4)nc12 [Example 12, 2-Aza-bicyclo[2.2.2]octane-2-carboxylic acid (4-methoxy-7-morpholin-4-yl-benzothiazol-2-yl)-amide]	2.51	–	–
COc1ccc(N2CCOCC2)c2sc(NC(=O)N3CCC4(CCCO4)CC3)nc12 [Example 13, 1-Oxa-8-aza-spiro[4.5]decane-8-carboxylic acid (4-methoxy-7-morpholin-4-yl-benzothiazol-2-yl)-amide]	2.51	–	–
COc1ccc(N2CCOCC2)c2sc(NC(=O)N3CCC([C@@H](C)O)CC3)nc12 [Example 14, (R)-4-(1-Hydroxy-ethyl)-piperidine-1-carboxylic acid (4-methoxy-7-morpholin-4-yl-benzothiazol-2-yl)-amide]	7.94	–	–
COc1ccc(N2CCOCC2)c2sc(NC(=O)N3CCC([C@H](C)O)CC3)nc12 [Example 15, (S)-4-(1-Hydroxy-ethyl)-piperidine-1-carboxylic acid (4-methoxy-7-morpholin-4-yl-benzothiazol-2-yl)-amide]	7.94	–	–
COc1ccc(N2CCOCC2)c2sc(NC(=O)N3CCC(CNS(C)(=O)=O)CC3)nc12 [Example 16, 4-(Methanesulfonylamino-methyl)-piperidine-1-carboxylic acid (4-methoxy-7-morpholin-4-yl-benzothiazol-2-yl)-amide]	15.8	–	–
COc1ccc(N2CCCCC2)c2sc(NC(=O)N3CCC4(CCCO4)CC3)nc12 [Example 19, 1-Oxa-8-aza-spiro[4.5]decane-8-carboxylic acid (4-methoxy-7-piperidin-1yl-benzothiazol-2-yl)-amide]	3.98	–	–

Structure (SMILES)	Ki [1, 2] [nM]	melting point [°C]	other results
Cc1ccc(CC2(O)CCN(C(=O)Nc3nc4c(Cl)ccc(N5CCCCC5)c4s3)CC2)cc1 [Example 20, 4-Hydroxy-4-(4-methyl-benzyl)-piperidine-1-carboxylic acid (4-chloro-7-piperidin-1-yl-benzothiazol-2-yl)-amide]	3.16	–	–
O=C(Nc1nc2c(Cl)ccc(N3CCCCC3)c2s1)NC1CCCCC1 [Example 21, 1-(4-Chloro-7-piperidin-1-yl-benzothiazol-2-yl)-3-cyclohexyl-urea]	2.51	–	–
O=C(Nc1nc2c(Cl)ccc(N3CCCCC3)c2s1)N1CCC(Cc2ccccc2)CC1 [Example 22, 4-Benzyl-piperidine-1-carboxylic acid (4-chloro-7-piperidin-1-yl-benzothiazol-2-yl)-amide]	15.8	–	–
COc1ccc(N2CCOCC2)c2sc(NC(=O)N(C)[C@H]3CC[C@@H](F)CC3)nc12 [Example 23, 1-(4cis-Fluoro-cyclohexyl)-3-(4-methoxy-7-morpholin-4-yl-benzothiazol-2-yl)-1-methyl-urea]	7.94	201 to 204	–
COc1ccc(N2CCOCC2)c2sc(NC(=O)N(C)C3CCC(F)(F)CC3)nc12 [Example 24, 1-(4,4-Difluoro-cyclohexyl)-3-(4-methoxy-7-morpholin-4-yl-benzothiazol-2-yl)-1-methyl-urea]	10	189 to 192	–
COc1ccc(N2CCOCC2)c2sc(NC(=O)N(C)[C@H]3CC[C@@H](OC)CC3)nc12 [Example 25, (cis)-1-(4-Methoxy-cyclohexyl)-3-(4-methoxy-7-morpholin-4-yl-benzothiazol-2-yl)-1-methyl-urea]	20	198 to 200	–
COc1ccc(N2CCOCC2)c2sc(NC(=O)N3CC4CC[C@@](C)(C3)C4(C)C)nc12 [Example 26, (1R)-1,8,8-Trimethyl-3-aza-bicyclo[3.2.1]octane-3-carboxylic acid (4-methoxy-7-morpholin-4-yl-benzothiazol-2-yl)-amide]	–	185 to 189	–
COc1ccc(N2CCOCC2)c2sc(NC(=O)N(C)[C@H]3CC[C@H](O)CC3)nc12 [Example 27, (trans)-1-(4-Hydroxy-cyclohexyl)-3-(4-methoxy-7-morpholin-4-yl-benzothiazol-2-yl)-1-methyl-urea]	12.6	158 to 162	–
COc1ccc(N2CCOCC2)c2sc(NC(=O)N3CCCOCC3)nc12 [Example 28, Oxazepane-4-carboxylic acid (4-methoxy-7-morpholin-4-yl-benzothiazol-2-yl)-amide]	–	–	hA2 (pKi) ([1]; displacement of [3H]-SCH-58261 (1 nM), recombinant receptor in CHO membranes, Ki by Cheng-Prussoff equation): 7.9
COc1ccc(N2CCOCC2)c2sc(NC(=O)N(C)[C@H]3CC[C@@H](O)CC3)nc12 [Example 29, (cis)-1-(4-Hydroxy-cyclohexyl)-3-(4-methoxy-7-morpholin-4-yl-benzothiazol-2-yl)-1-methyl-urea]	12.6	169 to 171	–
COc1ccc(N2CCOCC2)c2sc(NC(=O)N3CC4CCC3CO4)nc12 (stereo not shown) [Example 30, 2-Oxa-5-aza-bicyclo[2.2.2]octane-5-carboxylic acid (4-methoxy-7-morpholin-4-yl-benzothiazol-2-yl)-amide]	5.01	164 to 170	–
COc1ccc(N2CCOCC2)c2sc(NC(=O)N(C)[C@H]3CC[C@H](OC)CC3)nc12 [Example 32, (trans)-1-(4-Methoxy-cyclohexyl)-3-(4-methoxy-7-morpholin-4-yl-benzothiazol-2-yl)-1-methyl-urea]	25.1	211 to 213	–
COc1ccc(N2CCOCC2)c2sc(NC(=O)N3C[C@@H]4CC[C@H]3C4)nc12 [Example 33, (1S,4R)-2-Aza-bicyclo[2.2.1]heptane-2-carboxylic acid (4-methoxy-7-morpholin-4-yl-benzothiazol-2-yl)-amide]	5.01	149	–
COc1ccc(N2CCOCC2)c2sc(NC(=O)N(C)C3CCOCC3)nc12 [Example 34, 3-(4-Methoxy-7-morpholin-4-yl-benzothiazol-2-yl)-1-methyl-1-(tetrahydro-pyran-4-yl)-urea]	15.8	240 to 242	–
COc1ccc(N2CCOCC2)c2sc(NC(=O)N(C)C3CCCCCC3)nc12 [Example 35, 1-Cycloheptyl-3-(4-methoxy-7-morpholin-4-yl-benzothiazol-2-yl)-1-methyl-urea]	12.6	198 to 200	–
COc1ccc(N2CCOCC2)c2sc(NC(=O)N(C)C3CCCC3)nc12 [Example 36, 1-Cyclopentyl-3-(4-methoxy-7-morpholin-4-yl-benzothiazol-2-yl)-1-methyl-urea]	7.94	110 to 125	–
